Reference: patent publication US20250108036A1, “COMPOSITIONS FOR REMOVING SENESCENT CELLS AND USES THEREOF” (LIFECEUTIX CO., LTD., priority 2021, published 2025)

B1: LX-3103: CAS 9015-68-3 (protein, UniProt P00805 23-348, looked up)
L-asparaginase 2: LPNITILATGGTIAGGGDSATKSNYTVGKVGVENLVNAVPQLKDIANVKGEQVVNIGSQDMNDNVWLTLAKKINTDCDKTDGFVITHGTDTMEETAYFLDLTVKCDKPVVMVGAMRPSTSMSADGPFNLYNAVVTAADKASANRGVLVVMNDTVLDGRDVTKTNTTDVATFKSVNYGPLGYIHNGKIDYQRTPARKHTSDTPFDVSKLNELPKVGIVYNYANASDLPAKALVDAGYDGIVSAGVGNGNLYKSVFDTLATAAKTGTAVVRSSRVPTGATTQDAEVDDAKYGFVASGTLNPQKARVLLQLALTQTKDPQQIQQIFNQY

Assays:
Format in all cases: cell-based, human
HMGN1 [1] = assay: HMGN1 ELISA in culture medium of foreskin cells (Examples 10, 11; Tables 62, 63, 64); settings: doxorubicin-treated foreskin cells, DMSO = 100
senescent foreskin cells = assay: survival of senescent foreskin cells treated with medium supernatant (secreted fluid) of compound-killed cells (Example 13, Tables 68, 69); settings: culture medium supernatant from dying senescent cells treated with compound at 30 μM, 90 μM or 270 μM; senescent foreskin cells
A549 = assay: CellTiter-Glo cell viability of senescent A549 cancer cells (Example 12, Table 67); settings: doxorubicin-induced senescent A549 cancer cells, CellTiter-Glo
HMGN1 [2] = assay: HMGN1 ELISA in culture medium of A549 cancer cells (Example 12, Table 66); settings: doxorubicin-induced senescent A549 cells, ELISA, DMSO = 100
[3] = tested on: foreskin cells in which senescence was induced by doxorubicin; assay: CellTiter-Glo cell viability of doxorubicin-induced senescent foreskin cells (Examples 1-2, 10, 11, 13; Tables 4, 63, 65); settings: doxorubicin-induced senescent foreskin cells, CellTiter-Glo, 0 μM = 100

Molecule	HMGN1 (HMGN1 [1]; 30 μM test compound)	Survival (senescent foreskin cells)	Survival (%) (A549; 1.1 μM test compound)	Survival (%) (A549; 10 μM test compound)	Survival (%) (A549; 30 μM test compound)	HMGN1 (amount of HMGN1 secreted in the cell culture) (HMGN1 [2]; test compound 30 μM)	Survival (%) ([3]; 1.1 μM test compound)	Survival (%) ([3]; 10 μM test compound)	Survival (%) ([3]; 30 μM test compound)	Survival (%) ([3]; […] test compound)	Survival (%) (A549; 90 μM test compound)	HMGN1 (amount of HMGN1 secreted in the cell culture) (HMGN1 [2]; test compound 90 μM)	HMGN1 (HMGN1 [1]; 90 μM test compound)	Survival (%) ([3]; 90 μM test compound)	HMGN1 (HMGN1 [1]; 20 ng/ml test compound)	HMGN1 (amount of HMGN1 secreted in the cell culture) (HMGN1 [2]; test compound 20 ng/ml)
CC(N)(Cc1ccc(O)cc1)C(=O)O (racemic) [LX-3206, Racemetyrosine, reference compound]	222	51.9	92.6%	51.9%	5.7%	215	95.8%	64.7%	21.3%	96%						
O=C(O)CC([S-])C(=O)O.[Au+] (stereo not drawn) [LX-202, Aurothiomalate, reference compound]	287	45.7	96.7%	37.3%		327	97.4%			7.6%						
CN1CC[C@@H](Nc2cccc3c2cc(-c2noc(CNC(=O)c4cnn(C(C)(C)C)c4)n2)n3CC(F)(F)F)[C@@H](F)C1 [LX-915]	297	53.1	94.7%	86.9%	84.9%		94.7%	72.8%	8.5%	83.2%	6.8%	229				
Cc1nnc(NC(=O)c2nc(S(=O)(=O)Cc3ccc(F)cc3)ncc2Cl)s1 [LX-916]	317	48.7	103.9%	71.7%	24.4%		103.5%	54.5%	3.5%	94.2%	1.7%	198				
CS(=O)(=O)c1ncc(Cl)c(C(=O)O)n1 [LX-917]	269	42.5	101.5%	65.7%	17.1%		101.8%	45.8%	4.7%	93.2%	3.5%	223				
CC1=C(C)C(=O)C(CCCCCCCCCC[P+](c2ccccc2)(c2ccccc2)c2ccccc2)=CC1=O.[Br-] [LX-1205]	279	53.4	34.2%			279	0.1%									
O=C(NCCCCCCCCCC[P+](c1ccccc1)(c1ccccc1)c1ccccc1)c1nn(Cc2ccc(Cl)cc2Cl)c2ccccc12.[Br-] [LX-1207]	285	62.7	59.8%			318	36.8%			10%						
C[Si](C)(Cc1ccc(F)cc1)CN1CCCCC1.Cl [LX-1407, Silperisone, reference compound]	232	69.9	101.5%	71.7%	39.4%	175	99.4%	72.8%	19.9%	95.9%						
C[C@@H]1C(=O)C(C#N)=C[C@]2(c3ccccc3)c3c(c(-c4cncnc4)nn3C)CC[C@@H]12 [LX-2408]	297	55.2	96.5%	15.9%		329	85.9%			37.5%						
C[N+](C)(C)CCO.C[N+](C)(C)CCO.[SH-].[SH-].[S]=[Mo]=[S] [LX-2601]	263	67.3	98.6%	59.7%	50.7%	193	95.2%	58.6%	21.8%	81.8%						
CCOC(=O)[C@@H](N)CCC(=O)N[C@@H](CSCc1ccccc1)C(=O)N[C@@H](C(=O)OCC)c1ccccc1 [LX-2602, Ezatiostat, reference compound]	208	69.5	102.7%	96%	32.5%	283	97.3%	76.9%	47.6%	92.5%						
CN(Cc1cnc2nc(N)nc(N)c2n1)c1ccc(C(=O)N[C@@H](CCC(=O)O)C(=O)O)cc1 [LX-2901, Methotrexate, reference compound]		97.5	89%	90.4%	92.3%		103.3%	104.8%	93.6%	97.8%	37.2%	189	167	49.9%		
C[Se](=O)O [LX-3105, Methylseleninic acid]	195	69.1	84%	69.9%	59.3%		82.1%	41.1%	37.7%	59.5%	39.6%	202		4.1%		
Cc1nc(-c2nc(-c3ccc(OC(F)(F)F)cc3)no2)nn1Cc1cccc(N2CCC(S(C)(=O)=O)CC2)c1 [LX-3200]	234	54.9	94.9%	61.6%	1.6%	305	92.2%	14.3%		78.6%						
LX-3401: Interferon gamma, CAS 98059-61-1 (IFNy-1b), 82115-62-6		66.8	110.8%	58.3%	5.8%		101.8%	75.8%	35.4%	98.1%					198	284
Tocofersolan [LX-3001, reference compound]	301	58.7	101.6%	22.6%		261	74.8%			1.1%						
[3,4,5-triacetyloxy-6-[4-[2-[(dimethylamino)methyl]prop-2-enoyl]phenoxy]oxan-2-yl]methyl acetate [LX-918]	247	63.8	103.8%	86.7%	82.9%		98.9%	94.5%	32.7%	95.4%	31.8%	200				
B1	243	64.3	68.7%	21.1%		254	84.4%	48.5%	25%	71.2%						
